Measured values: patent US4311698A, “Aminoacid derivatives of cephalosporin compounds” (priority 1980, dated 1982)
In brackets after ≈: the same amount, converted by molar mass. Like-named read-outs stand apart in the source and are kept apart here.

Legend:
Type in all cases: cell-based
E. Coli. Brig = test: In vitro minimal inhibitory concentration, E. Coli. Brig; details: Escherichia coli
Staph S 18713 = test: In vitro minimal inhibitory concentration, Staph S 18713
Staph UC76 = test: In vitro minimal inhibitory concentration, Staph UC76
Pseudomonas BRK 12-4-4 = test: In vitro minimal inhibitory concentration, Pseudomonas BRK 12-4-4; details: BRK1244
Strep. fec. MGH 2 = test: In vitro minimal inhibitory concentration, Strep. fec. MGH 2
Pseudomonas #28 = test: In vitro minimal inhibitory concentration, Pseudomonas #28; details: read-out: Minimal Inhibitory Concentration
Entero Cloac. IM 11 = test: In vitro minimal inhibitory concentration, Entero Cloac. IM 11
Pseudomonas UI 18 = test: In vitro minimal inhibitory concentration, Pseudomonas UI 18; details: UI18
Klebs. Pneum. MGH 2 = test: In vitro minimal inhibitory concentration, Klebs. Pneum. MGH 2
E. Coli. Vogel = test: In vitro minimal inhibitory concentration, E. Coli. Vogel; details: Escherichia coli
Prot Vulg. = test: In vitro minimal inhibitory concentration, Prot Vulg.
Serr. Mar. IMM 16 = test: In vitro minimal inhibitory concentration, Serr. Mar. IMM 16

| SMILES | MIC (E. Coli. Brig) [µg/mL] | MIC (Staph S 18713) [µg/mL] | MIC (Staph UC76) [µg/mL] | MIC (Pseudomonas BRK 12-4-4) [µg/mL] | MIC (Strep. fec. MGH 2) [µg/mL] | MIC (Pseudomonas #28; Pseudomonas #28, in vitro) [µg/mL] | MIC (Entero Cloac. IM 11) [µg/mL] | MIC (Pseudomonas UI 18) [µg/mL] | MIC (Klebs. Pneum. MGH 2) [µg/mL] | MIC (E. Coli. Vogel) [µg/mL] | MIC (Prot Vulg.) [µg/mL] | MIC (Serr. Mar. IMM 16) [µg/mL] | MIC (Pseudomonas #28; Pseudomonas) [µg/mL] |
| --- | --- | --- | --- | --- | --- | --- | --- | --- | --- | --- | --- | --- | --- |
| CC(=O)NCCCCC(NC(C)=O)C(=O)Nc1ccc(-c2ccc(C(=O)N[C@@H](C(=O)NC3C(=O)N4C(C(=O)O)=C(CSc5nnnn5C)CSC34)c3ccccc3)c(=O)[nH]2)cc1 (mixture of isomers) [Example 26, N-[6-[4-(N,N'-Diacetyl-DL-lysylamino)phenyl)-1,2-dihydro-2-oxonicotinyl]-7-[D-2-amino-2-phenylacetamido]3-[[(1-methyl-1H-tetrazol-5-yl)thio]methyl]-3-cephem-4-carboxylic acid] | 12.5 | 6.3 | 1.6 | 12.5 | 50 | 12.5 | 6.3 | 12.5 | 1.6 | 1.6 | 25 | 50 | – |
| CC(=O)NC(C)(C)C(=O)Nc1ccc(-c2ccc(C(=O)N[C@@H](C(=O)NC3C(=O)N4C(C(=O)O)=C(COC(C)=O)CSC34)c3ccccc3)c(=O)[nH]2)cc1 (stereo partly drawn) [Example 11, N-[6-[4-(N-Acetyl-alpha-aminoisobutyrylamino)phenyl]-1,2-dihydro-2-oxonicotinyl]-7-[D-2-amino-2-phenylacetamido]-3-acetoxymethyl-3-cephem-4-carboxylicacid] | 12.5 (≈ 16.8 µM) | 3.1 (≈ 4.16 µM) | 0.4 (≈ 0.537 µM) | 6.3 (≈ 8.46 µM) | 25 (≈ 33.6 µM) | 3.1 (≈ 4.16 µM) | 12.5 (≈ 16.8 µM) | 6.3 (≈ 8.46 µM) | 12.5 (≈ 16.8 µM) | 3.1 (≈ 4.16 µM) | 12.5 (≈ 16.8 µM) | 50 (≈ 67.1 µM) | – |
| CC(=O)N[C@@H](CCC(N)=O)C(=O)Nc1ccc(-c2ccc(C(=O)N[C@@H](C(=O)NC3C(=O)N4C(C(=O)O)=C(CSc5nnnn5CS(=O)(=O)O)CSC34)c3ccccc3)c(=O)[nH]2)cc1 (stereo partly drawn) [Example 42, N-[6-[4-(N-Acetyl-L-glutaminylamino)phenyl]-1,2-dihydro-2-oxonicotinyl]-7-[D-2-amino-2-phenylacetamido]-3-[[(1-sulfomethyl-1H-tetrazol-5-yl)thio]methyl]-3-cephem-4-carboxylic acid] | 6.3 (≈ 6.82 µM) | 12.5 (≈ 13.5 µM) | 6.3 (≈ 6.82 µM) | 6.3 (≈ 6.82 µM) | > 50 | – | 6.3 (≈ 6.82 µM) | 6.3 (≈ 6.82 µM) | 3.1 (≈ 3.36 µM) | 0.8 (≈ 0.866 µM) | 3.1 (≈ 3.36 µM) | 12.5 (≈ 13.5 µM) | 12.5 (≈ 13.5 µM) |
| CC(=O)OCC1=C(C(=O)O)N2C(=O)C(NC(=O)[C@H](NC(=O)c3ccc(-c4ccc(NC(=O)C5CCCN5C(C)=O)cc4)[nH]c3=O)c3ccccc3)C2SC1 (mixture of isomers) [Example 17, N-[6-[4-(N-Acetyl-DL-prolylamino)phenyl]-1,2-dihydro-2-oxonicotinyl]-7-[D-2-amino-2-phenylacetamido]-3-acetoxymethyl-3-cephem-4-carboxylic acid] | 25 | 3.1 | 1.6 | 25 | 50 | 12.5 | 25 | 12.5 | 12.5 | 3.1 | 25 | 50 | – |
| CC(=O)N[C@H](C)C(=O)Nc1ccc(-c2ccc(C(=O)N[C@@H](C(=O)NC3C(=O)N4C(C(=O)O)=C(COC(N)=O)CSC34)c3ccccc3)c(=O)[nH]2)cc1 (stereo partly drawn) [Example 24, N-[6-[4(N-Acetyl-D-alanylamino)phenyl]-1,2-dihydro-2-oxonicotinyl]-7-[D-2-amino-phenylacetamido]-3-carbamoyloxymethyl-3-cephem-4-carboxylic acid] | 25 (≈ 34.2 µM) | – | 0.4 (≈ 0.547 µM) | 12.5 (≈ 17.1 µM) | 25 (≈ 34.2 µM) | 12.5 (≈ 17.1 µM) | 25 (≈ 34.2 µM) | 12.5 (≈ 17.1 µM) | 12.5 (≈ 17.1 µM) | 6.3 (≈ 8.61 µM) | 12.5 (≈ 17.1 µM) | > 50 | – |
| CC(=O)N[C@H](CCC(N)=O)C(=O)Nc1ccc(-c2ccc(C(=O)N[C@@H](C(=O)NC3C(=O)N4C(C(=O)O)=C(CSc5nnnn5CC(=O)O)CSC34)c3ccccc3)c(=O)[nH]2)cc1 (stereo partly drawn) [Example 37, N-[6-[4-(N-Acetyl-D-glutaminylamino)phenyl]-1,2-dihydro-2-oxonicotinyl]-7-[D-2-amino-2-phenylacetamido]-3-[[(1-carboxymethyl-1H-tetrazol-5-yl)thio]methyl]-3-cephem-4-carboxylic acid] | 6.3 (≈ 7.1 µM) | – | 6.3 (≈ 7.1 µM) | 12.5 (≈ 14.1 µM) | > 50 | 6.3 (≈ 7.1 µM) | 6.3 (≈ 7.1 µM) | 12.5 (≈ 14.1 µM) | 3.1 (≈ 3.49 µM) | 0.8 (≈ 0.901 µM) | 3.1 (≈ 3.49 µM) | 12.5 (≈ 14.1 µM) | – |
| CC(=O)NC(C)C(=O)Nc1ccc(-c2ccc(C(=O)N[C@@H](C(=O)NC3C(=O)N4C(C(=O)O)=C(COC(C)=O)CSC34)c3ccccc3)c(=O)[nH]2)cc1 (mixture of isomers) [Example 3, N-[6-[4-(N-Acetyl-DL-alanylamino)phenyl]-1,2-dihydro-2-oxonicotinyl]-7-[D-2-amino-2-phenylacetamido]-3-acetoxymethyl cephem-4-carboxylic acid] | 12.5 | – | 0.4 | 12.5 | 25 | 12.5 | 25 | 6.3 | 6.3 | 3.1 | 25 | 25 | – |
| CC(=O)N[C@@H](C)C(=O)Nc1ccc(-c2ccc(C(=O)N[C@@H](C(=O)NC3C(=O)N4C(C(=O)O)=C(CSc5nnnn5C)CSC34)c3ccccc3)c(=O)[nH]2)cc1 (stereo partly drawn) [Example 20, N-[6-[4-(N-Acetyl-L-alanylamino)phenyl]-1,2-dihydro-2-oxonicotinyl]7-[D-2-amino-2-phenylacetamido]-3-[[(1-methyl-1H-tetrazol-5-yl)thio]methyl]-3-cephem-4-carboxylic acid] | 6.3 (≈ 8.01 µM) | – | 1.6 (≈ 2.03 µM) | 12.5 (≈ 15.9 µM) | 25 (≈ 31.8 µM) | 12.5 (≈ 15.9 µM) | 6.3 (≈ 8.01 µM) | 12.5 (≈ 15.9 µM) | 1.6 (≈ 2.03 µM) | 1.6 (≈ 2.03 µM) | 12.5 (≈ 15.9 µM) | 25 (≈ 31.8 µM) | – |
| CC(=O)N[C@@H](CCC(N)=O)C(=O)Nc1ccc(-c2ccc(C(=O)N[C@@H](C(=O)NC3C(=O)N4C(C(=O)O)=C(CSc5nnnn5CC(=O)O)CSC34)c3ccccc3)c(=O)[nH]2)cc1 (stereo partly drawn) [Example 21, N-[6-[4-(N-Acetyl-L-glutaminylamino)phenyl]-1,2-dihydro-2-oxonicotinyl]-7-[D-2-amino-2-phenylacetamido]-3-[[(1-carboxymethyl-1H-tetrazol-5-yl)thio]methyl]-3-cephem-4-carboxylic acid] | 3.1 (≈ 3.49 µM) | – | 6.3 (≈ 7.1 µM) | 12.5 (≈ 14.1 µM) | 50 (≈ 56.3 µM) | 6.3 (≈ 7.1 µM) | 6.3 (≈ 7.1 µM) | 6.3 (≈ 7.1 µM) | 3.1 (≈ 3.49 µM) | 3.1 (≈ 3.49 µM) | 3.1 (≈ 3.49 µM) | 12.5 (≈ 14.1 µM) | – |
| CC(=O)N[C@H](C)C(=O)Nc1ccc(-c2ccc(C(=O)N[C@@H](C(=O)NC3C(=O)N4C(C(=O)O)=C(COC(C)=O)CSC34)c3ccccc3)c(=O)[nH]2)cc1 (stereo partly drawn) [Example 4, N-[6-[4-(N-Acetyl-D-alanylamino)phenyl]-1,2-dihydro-2-oxonicotinyl]-7-[D-2-amino-2-phenylacetamido]-3-acetoxymethyl-3-cephem-4-carboxylic acid] | 12.5 (≈ 17.1 µM) | – | 0.8 (≈ 1.09 µM) | 12.5 (≈ 17.1 µM) | 25 (≈ 34.2 µM) | 6.3 (≈ 8.62 µM) | 12.5 (≈ 17.1 µM) | 6.3 (≈ 8.62 µM) | 6.3 (≈ 8.62 µM) | 3.1 (≈ 4.24 µM) | 25 (≈ 34.2 µM) | 50 (≈ 68.4 µM) | – |
